[invAb] = inverted abasic unit; d = 2'-deoxy (DNA); m = 2'-O-methyl; r = 2'-OH (RNA); f = 2'-fluoro

For one series, the system named is ENaCα mRNA. Kind of series: Screening of ENaCα siNAs in human A549 cells (quantitative RT-PCR). The note with it: human A549 cells, n = 3; for Avg ENaCα Expression: 25 nM siNA with Lipofectamine 2000, harvested 24 hours post-transfection; for Mean (level of ENaCα expression normalized to the level of GAPDH) / Percent Reduction of the ENaCα mRNA relative to a non-targeting control siNA (NTC) / Avg GAPDH Expression: 24 hours post-transfection; for Avg GAPDH Expression: housekeeping gene used for normalisation. The format is cell-based. Details: Percent Reduction of the ENaCα mRNA relative to a non-targeting control siNA (NTC): concentration or dose not given beside the values. The protocol: siNA constructs (Table 1b) may be tested for efficacy in reducing ENaC RNA expression in, for example, A549 human lung carcinoma cells. A549 (human; ATCC cat# CCL-185) cells were cultured at 37° C. in the presence of 5% CO2 and grown in Ham's F12K medium with 2 mM L-glutamine adjusted to contain 1.5 g/L sodium bicarbonate and supplemented with fetal bovine serum at a final concentration of 10% and 100 U/mL penicillin. The A549 cells were plated approximately 24 hours before transfection in 96-well plates at 7,500 cells/well, 100 μl/well. After 24 hours complexes containing siNA and Lipofectamine 2000 (Invitrogen) were created as follows: a solution of Lipofectamine 2000 in OPTI-MEM was prepared containing Lipofectamine 2000 at a final concentration of 14 μg/ml. In parallel, solutions of the siNAs were prepared in OPTI-MEM at a final concentration of 150 nM. After both solutions were incubated at 20° C. for 20 minutes an equal volume of the siNA solutions and the Lipofectamine 2000 solution were added together for each of the siNAs. The resultant solution has the siNAs at a final concentration of 75 nM and Lipofectamine 2000 at a final concentration of 7 μg/ml. This solution was incubated at 20° C. for 20 minutes. After incubation 50 μl of the solution were added to each of the wells (in triplicate). The final concentration of siNA in each well was 25 nM and the final concentration of Lipofectamine 2000 in each well was 2.33 μg/ml. […] Dose response curves were determined in a similar manner with each concentration being done in triplicate and maintaining a constant amount of Lipofectamine 2000 in each transfection.
RNA was extracted from 96-well plates using the Invitek Invisorb RNA Cell HTS 96 Kit/C (Cat# 70619000) with a slightly modified protocol. The details of the protocol for isolating RNA from each plate are described as follows:
1) Aspirate media with rake 2) Add 150 ul/well Lysis buffer 3) Place on plate shaker for 1 minute 4) Place DNA binding plate on top of 0.5 ml collection plate 5) Pipette 190 ul up and down twice and add to DNA binding plate 6) Cover plate 7) Centrifuge plates 4 minutes at 4000 RPM 8) Discard DNA binding plate 9) Place the RNA binding plate on top of 2 ml collection plate 10) Add 150 ul/well of Binding Buffer R to 0.5 ml collection plate 11) Move contents of 0.5 ml collection plate to RNA binding plate 12) Let incubate for 1 minute 13) Centrifuge plates 4 minutes at 4000 RPM 14) Add 600 ul/well of Wash Buffer R1 to RNA binding plate 15) Centrifuge plates 4 minutes at 4000 RPM 16) Dump wash buffer from 2 ml collection plate 17) Add 400 ul/well of Wash Buffer R2 to RNA binding plate 18) Centrifuge plates 4 minutes at 4000 RPM 19) Add 400 ul/well of Wash Buffer R2 to RNA binding plate 20) Centrifuge plates 10 minutes at 4000 RPM 21) Dump wash buffer from 2 ml collection plate 22) Centrifuge plates 3 minutes at 4000 RPM 23) Discard 2 ml collection plate and place RNA binding plate on to microtiter plate 24) Add 100 ul/well of elution buffer to RNA binding plate 25) Incubate for 2 minutes 26) Seal plate 27) Centrifuge plates 3 minutes at 4000 RPM 28) Discard RNA binding plate 29) Cover microtiter plate for storage in −80 freezer
A series of probes and primers were used to detect the various mRNA transcripts of the genes of ENaCa and GAPDH in mouse, rat, and human cell lines. The assays were performed on an ABI 7500 instrument, according to the manufacturer's instructions. Within each experiment, the baseline was set in the exponential phase of the amplification curve, and based on the intersection point of the baselines with the amplification curve, a Ct value was assigned by the instrument. This Ct value was then assigned a QTY value based on the Standard Curve. The standard curve in the various experiments herein used 1 ng to 300 ng of RNA extracted from the same cell line used for the experimental transfections. […]

The subject of a further series is rSCNN1A (r ENaCα) mRNA. As to the kind of experiment: Screening of ENaCα siNAs in Rat H-4-II-E cells (quantitative RT-PCR). The format is cell-based. More on the design: Percent Reduction of the r ENaCα mRNA relative to a non-targeting control siNA (NTCs) / Rat % KD (efficacy of ENaCα mRNA knockdown): concentration or dose not given beside the values. The note with it: Rat H-4-II-E cells, n = 3; for Mean (rSCNN1A expression normalized to the level of rGAPDH) / Percent Reduction of the r ENaCα mRNA relative to a non-targeting control siNA (NTCs) / Avg GAPDH Expression (rGAPDH): 24 hours post-transfection; for Avg ENaCα Expression (rSCNN1A): harvested 24 hours post-transfection; for Avg GAPDH Expression (rGAPDH): housekeeping gene used for normalisation. The protocol:
A series of probes and primers were used to detect the various mRNA transcripts of the genes of ENaCa and GAPDH in mouse, rat, and human cell lines. The assays were performed on an ABI 7500 instrument, according to the manufacturer's instructions. Within each experiment, the baseline was set in the exponential phase of the amplification curve, and based on the intersection point of the baselines with the amplification curve, a Ct value was assigned by the instrument. This Ct value was then assigned a QTY value based on the Standard Curve. The standard curve in the various experiments herein used 1 ng to 300 ng of RNA extracted from the same cell line used for the experimental transfections.
All IC50 values were calculated from the data using GraphPad Prizm software, specifically a sigmoidal, variable slope curve for simple ligand binding. Also, unless otherwise indicated, all calculations of the efficacy and potency (e.g., % knockdown) of the siNAs were done relative to a non-targeting control siNA. If reported, P-values were computed using The Students t-test, including the Welch Correction for unequal variances.
In all of the calculations of the % knock-down of mRNA, the calculation was made relative to the normalized level of expression of the gene of interest in the samples treated with the non-targeting control (NTC) unless otherwise indicated. The gene of interest expression level was divided by the level of expression of GAPDH or 36B4 (depending on the species) in each sample. The three replicates for each condition in each experiment were averaged and the standard deviation of those samples was calculated. The following formula was then used to calculate the % of knock-down of the gene of interest:
The ENaCα siNAs were designed and synthesized as described previously. The siNAs were screened in three cell lines. Human A549 cells, mouse NIH 3T3 and Rat H-4-II-E cells. The data from the screen of ENaCa siNAs in all three species is shown in Tables 3a, 3b, 4a, 4b, 5a, and 5b and a summary of the data for certain siNA molecules is presented in Table 6. Each screen was performed at 24 hrs. The decision to use this time point was based upon the degree of knockdown of the mRNA seen at that time point.

As for “B AAccGCAuGAAGAcGGccu TTB / AGGccGucuucAuGcGGuuUU (chain 1 AACCGCAUGAAGACGGCCUTT; chain 2 AGGCCGUCUUCAUGCGGUUUU; siRNA; chain 1: sugars from the 5' end ddffdddfdddddfddfffdd, [invAb] at 5' end, 3' end, backbone not given here; chain 2: sugars from the 5' end rrrffmfffffmfmfmmffmm, backbone not given here) [Site 337]”, in the series on ENaCα mRNA, the “Avg ENaCα Expression” value was found to be 67.27, the “Mean (level of ENaCα expression normalized to the level of GAPDH)” value came out at 1.48, the “Percent Reduction of the ENaCα mRNA relative to a non-targeting control siNA (NTC)” value is listed as 5.0% and the “Avg GAPDH Expression” value came out at 49.84. Besides, in the series on rSCNN1A (r ENaCα) mRNA, the “Mean (rSCNN1A expression normalized to the level of rGAPDH)” value was found to be 0.96, the “Percent Reduction of the r ENaCα mRNA relative to a non-targeting control siNA (NTCs)” value is on record as 25.4%, the “Avg ENaCα Expression (rSCNN1A)” value is listed as 16.40 and the “Avg GAPDH Expression (rGAPDH)” value is 17.17.

As for “B GuGGcuGuGccuAcAucuu TTB / AAGAuGuAGGcAcAGccAcUU (sense GUGGCUGUGCCUACAUCUUTT; antisense AAGAUGUAGGCACAGCCACUU; siRNA; sense: DNA at AGT, 2'-fluoro at CU, [invAb] at 5' end, 3' end, backbone not given here; antisense: sugars from the 5' end rrrmfmfmmmfmfmmffmfmm, backbone not given here) [Site 1385]”, in the series with ENaCα mRNA, the “Avg ENaCα Expression” value stood at 90.81, the “Mean (level of ENaCα expression normalized to the level of GAPDH)” value was determined as 0.81, the “Percent Reduction of the ENaCα mRNA relative to a non-targeting control siNA (NTC)” value is on record as −23.6% and the “Avg GAPDH Expression” value was determined as 119.04. Moreover, in the series on rSCNN1A (r ENaCα) mRNA, the “Mean (rSCNN1A expression normalized to the level of rGAPDH)” value worked out at 0.58, the “Percent Reduction of the r ENaCα mRNA relative to a non-targeting control siNA (NTCs)” value is 36.7%, the “Avg ENaCα Expression (rSCNN1A)” value came to 19.09 and the “Avg GAPDH Expression (rGAPDH)” value is on record as 30.04.

On to “B GuccAAccuGGGcAGccAG TTB / CUGGcuGcccAGGuuGGAcUU (sense GUCCAACCUGGGCAGCCAGTT; antisense CUGGCUGCCCAGGUUGGACUU; siRNA; sense: DNA at AGT, 2'-fluoro at CU, [invAb] at 5' end, 3' end, backbone not given here; antisense: sugars from the 5' end rmmmffmfffmmmffmmmfmm, backbone not given here) [Site 1743]”, for which, in the series on ENaCα mRNA, the “Avg ENaCα Expression” value is 68.82, the “Mean (level of ENaCα expression normalized to the level of GAPDH)” value came out at 0.57, the “Percent Reduction of the ENaCα mRNA relative to a non-targeting control siNA (NTC)” value is 13.9% and the “Avg GAPDH Expression” value stood at 121.24. For the same substance, in the series with rSCNN1A (r ENaCα) mRNA, the “Mean (rSCNN1A expression normalized to the level of rGAPDH)” value is given as 0.52, the “Percent Reduction of the r ENaCα mRNA relative to a non-targeting control siNA (NTCs)” value is 43.9%, the “Avg ENaCα Expression (rSCNN1A)” value is reported as 22.13 and the “Avg GAPDH Expression (rGAPDH)” value came to 42.82.

Regarding “B ccGcAuGAAGAcGGccuuc TTB / GAAGGccGucuucAuGcGGUU (chain 1 CCGCAUGAAGACGGCCUUCTT; chain 2 GAAGGCCGUCUUCAUGCGGUU; siRNA; chain 1: DNA at AGT, 2'-fluoro at CU, [invAb] at 5' end, 3' end, backbone not given here; chain 2: sugars from the 5' end rrrmmffmfffffmfmfmmmm, backbone not given here) [Site 339]”, in the series on ENaCα mRNA, the “Avg ENaCα Expression” value stood at 69.05, the “Mean (level of ENaCα expression normalized to the level of GAPDH)” value was 1.13, the “Percent Reduction of the ENaCα mRNA relative to a non-targeting control siNA (NTC)” value was determined as 27.1% and the “Avg GAPDH Expression” value amounted to 62.02. Besides, in the series with rSCNN1A (r ENaCα) mRNA, the “Mean (rSCNN1A expression normalized to the level of rGAPDH)” value is 0.79, the “Percent Reduction of the r ENaCα mRNA relative to a non-targeting control siNA (NTCs)” value worked out at 38.3%, the “Avg ENaCα Expression (rSCNN1A)” value is given as 15.81 and the “Avg GAPDH Expression (rGAPDH)” value was 19.92.

For the substance “B AAccuGGGcAGccAGuGGA TTB / UCCAcuGGcuGcccAGGuuUU (sense AACCUGGGCAGCCAGUGGATT; antisense UCCACUGGCUGCCCAGGUUUU; siRNA; sense: sugars from the 5' end ddfffdddfddffddfddrdd, [invAb] at 5' end, 3' end, backbone not given here; antisense: sugars from the 5' end rrrmffmmffmfffmmmffmm, backbone not given here) [Site 1747]”, in the series on ENaCα mRNA, the “Avg ENaCα Expression” value is 75.36, the “Mean (level of ENaCα expression normalized to the level of GAPDH)” value was found to be 0.58, the “Percent Reduction of the ENaCα mRNA relative to a non-targeting control siNA (NTC)” value came out at 12.3% and the “Avg GAPDH Expression” value was determined as 130.33. Moreover, in the series on rSCNN1A (r ENaCα) mRNA, the “Mean (rSCNN1A expression normalized to the level of rGAPDH)” value was 0.56, the “Percent Reduction of the r ENaCα mRNA relative to a non-targeting control siNA (NTCs)” value is recorded as 39.5%, the “Avg ENaCα Expression (rSCNN1A)” value is 23.39 and the “Avg GAPDH Expression (rGAPDH)” value is 41.88.

The values above are taken from US20110288154A1, “RNA Interference Mediated Inhibition of Epithelial Sodium Channel (ENaC) Gene Expression Using Short Interfering Nucleic Acid (siNA)” (MERCK & CO., INC., priority 2008, published 2011).
